According to patent publication US20220033389A1, “INSECTICIDAL COMPOUNDS” (SYNGENTA CROP PROTECTION AG, priority 2018, published 2022):

Columns and labels:
Assay type in all cases: in vivo
[1] = system: Diabrotica balteata (Corn Root Worm); test: Diabrotica balteata (corn root worm) on maize sprouts, spray; conditions: 96 h, L2 larvae, 4 days after infestation, read-out: effect in at least one of the two categories (mortality or growth inhibition)
Description: Diabrotica balteata (Corn Root Worm)
Maize sprouts placed onto an agar layer in 24-well microtiter plates were treated with aqueous test solutions prepared from 10′000 ppm DMSO stock solutions by spraying. After drying, the plates were infested with L2 larvae (6 to 10 per well). The samples were assessed for mortality and growth inhibition in comparison to untreated samples 4 days after infestation.

[2] = system: Euschistus heros (Neotropical Brown Stink Bug); test: Euschistus heros (neotropical brown stink bug) on soybean leaves, spray; conditions: 120 h, N2 nymphs, 5 days after infestation, read-out: effect in at least one of the two categories (mortality or growth inhibition)
Description: Euschistus heros(Neotropical Brown Stink Bug) Soybean leaves on agar in 24-well microtiter plates were sprayed with aqueous test solutions prepared from 10′000 ppm DMSO stock solutions. After drying the leaves were infested with N2 nymphs. The samples were assessed for mortality and growth inhibition in comparison to untreated samples 5 days after infestation.

[3] = system: Plutella xylostella (Diamond Back Moth); test: Plutella xylostella (diamond back moth), L2 larvae on artificial diet; conditions: 120 h, 5 days after infestation, read-out: effect in at least one of the two categories (mortality or growth inhibition)
Description: (§1) Plutella xylostella (Diamond Back Moth)
24-well microtiter plates with artificial diet were treated with aqueous test solutions prepared from 10′000 ppm DMSO stock solutions by pipetting. After drying, the plates were infested with L2 larvae (10 to 15 per well). The samples were assessed for mortality and growth inhibition in comparison to untreated samples 5 days after infestation.

[4] = system: Myzus persicae (Green Peach Aphid); test: Myzus persicae (green peach aphid) feeding/contact activity; conditions: 144 h, mixed ages, 6 days after infestation
Description: Myzus persicae (Green Peach Aphid): Feeding/Contact Activity
Sunflower leaf discs were placed onto agar in a 24-well microtiter plate and sprayed with aqueous test solutions prepared from 10′000 ppm DMSO stock solutions. After drying, the leaf discs were infested with an aphid population of mixed ages. The samples were assessed for mortality 6 days after infestation.

[5] = system: Spodoptera littoralis (Egyptian Cotton Leaf Worm); test: Spodoptera littoralis (Egyptian cotton leaf worm) on cotton leaf discs; conditions: foliar, 72 h, L1 larvae, 3 days after infestation
Description: Spodoptera littoralis (Egyptian Cotton Leaf Worm)
Cotton leaf discs were placed onto agar in 24-well microtiter plates and sprayed with aqueous test solutions prepared from 10′000 ppm DMSO stock solutions. After drying the leaf discs were infested with five L1 larvae. The samples were assessed for mortality, anti-feeding effect, and growth inhibition in comparison to untreated samples 3 days after infestation. Control of Spodoptera littoralis by a test sample is given when at least one of the categories mortality, anti-feedant effect, and growth inhibition is higher than the untreated sample.

[6] = system: Tetranychus urticae (Two-Spotted Spider Mite); test: Tetranychus urticae (two-spotted spider mite) feeding/contact activity; conditions: 192 h, mixed population (mobile stages), 8 days after infestation
Description: Tetranychus urticae (Two-Spotted Spider Mite): Feeding/Contact Activity
Bean leaf discs on agar in 24-well microtiter plates were sprayed with aqueous test solutions prepared from 10′000 ppm DMSO stock solutions. After drying the leaf discs were infested with a mite population of mixed ages. The samples were assessed for mortality on mixed population (mobile stages) 8 days after infestation.

[7] = system: Thrips tabaci (Onion Thrips); test: Thrips tabaci (onion thrips) feeding/contact activity; conditions: 144 h, mixed ages, 6 days after infestation
Description: Thrips tabaci (Onion Thrips) Feeding/Contact Activity
Sunflower leaf discs were placed on agar in 24-well microtiter plates and sprayed with aqueous test solutions prepared from 10′000 ppm DMSO stock solutions. After drying the leaf discs were infested with a thrips population of mixed ages. The samples were assessed for mortality 6 days after infestation.

[8] = system: Plutella xylostella (Diamond Back Moth); test: Plutella xylostella (diamond back moth), eggs on artificial diet; conditions: 192 h, 8 days after infestation, read-out: effect in at least one of the two categories (mortality or growth inhibition)
Description: as §1
24-well microtiter plates with artificial diet were treated with aqueous test solutions prepared from 10′000 ppm DMSO stock solutions by pipetting. After drying, Plutella eggs were pipetted through a plastic stencil onto a gel blotting paper and the plate was closed with it. The samples were assessed for mortality and growth inhibition in comparison to untreated samples 8 days after infestation.

CCOC1=NOC(N(C(=O)c2ccc(C3=NO[C@@](c4cc(Cl)c(F)c(Cl)c4)(C(F)(F)F)C3)cc2C)C(=O)C2CC2)C1 (stereo partly drawn) [Compound A1, N-(cyclopropanecarbonyl)-4-[(5S)-5-(3,5-dichloro-4-fluoro-phenyl)-5-(trifluoromethyl)-4H-isoxazol-3-yl]-N-(3-ethoxy-4,5-dihydroisoxazol-5-yl)-2-methyl-benzamide]
≥ 80%: percent effect (mortality or growth inhibition) at 200 ppm [1] | percent effect (mortality or growth inhibition) at 200 ppm [2] | effect (mortality or growth inhibition) at 200 ppm [3] | mortality at 200 ppm [4] | percent control (mortality, anti-feedant effect or growth inhibition) at 200 ppm [5] | mortality at 200 ppm [6] | mortality at 200 ppm [7]

CCOC1=NOC(N(COC(=O)C(C)C)C(=O)c2ccc(C3=NO[C@@](c4cc(Cl)c(F)c(Cl)c4)(C(F)(F)F)C3)cc2C)C1 (stereo partly drawn) [Compound A2, [[4-[(5S)-5-(3,5-dichloro-4-fluoro-phenyl)-5-(trifluoromethyl)-4H-isoxazol-3-yl]-2-methyl-benzoyl]-(3-ethoxy-4,5-dihydroisoxazol-5-yl)amino]methyl 2-methylpropanoate]
≥ 80%: percent effect (mortality or growth inhibition) at 200 ppm [1] | percent effect (mortality or growth inhibition) at 200 ppm [2] | effect (mortality or growth inhibition) at 200 ppm [3] | mortality at 200 ppm [4] | percent control (mortality, anti-feedant effect or growth inhibition) at 200 ppm [5] | mortality at 200 ppm [6] | mortality at 200 ppm [7]

CCOC1=NOC(N(COC(=O)C(C)(C)C)C(=O)c2ccc(C3=NO[C@@](c4cc(Cl)c(F)c(Cl)c4)(C(F)(F)F)C3)cc2C)C1 (stereo partly drawn) [Compound A3, [[4-[(5S)-5-(3,5-dichloro-4-fluoro-phenyl)-5-(trifluoromethyl)-4H-isoxazol-3-yl]-2-methyl-benzoyl]-(3-ethoxy-4,5-dihydroisoxazol-5-yl)amino]methyl 2,2-dimethylpropanoate]
≥ 80%: percent effect (mortality or growth inhibition) at 200 ppm [1] | percent effect (mortality or growth inhibition) at 200 ppm [2] | effect (mortality or growth inhibition) at 200 ppm [3] | mortality at 200 ppm [4] | percent control (mortality, anti-feedant effect or growth inhibition) at 200 ppm [5] | mortality at 200 ppm [6] | mortality at 200 ppm [7]

CCOC1=NOC(N(CN(C)C(=O)OC)C(=O)c2ccc(C3=NO[C@@](c4cc(Cl)c(F)c(Cl)c4)(C(F)(F)F)C3)cc2C)C1 (stereo partly drawn) [Compound A4, methyl N-[[[4-[(5S)-5-(3,5-dichloro-4-fluoro-phenyl)-5-(trifluoromethyl)-4H-isoxazol-3-yl]-2-methyl-benzoyl]-(3-ethoxy-4,5-dihydroisoxazol-5-yl)amino]methyl]-N-methyl-carbamate]
≥ 80%: percent effect (mortality or growth inhibition) at 200 ppm [1] | percent effect (mortality or growth inhibition) at 200 ppm [2] | percent effect (mortality or growth inhibition) at 200 ppm [8] | mortality at 200 ppm [4] | percent control (mortality, anti-feedant effect or growth inhibition) at 200 ppm [5] | mortality at 200 ppm [6] | mortality at 200 ppm [7]

CCOC1=NOC(N(COC(=O)N(C)C)C(=O)c2ccc(C3=NO[C@@](c4cc(Cl)c(F)c(Cl)c4)(C(F)(F)F)C3)cc2C)C1 (stereo partly drawn) [Compound A5, [[4-[(5S)-5-(3,5-dichloro-4-fluoro-phenyl)-5-(trifluoromethyl)-4H-isoxazol-3-yl]-2-methyl-benzoyl]-(3-ethoxy-4,5-dihydroisoxazol-5-yl)amino]methyl N,N-dimethylcarbamate]
≥ 80%: percent effect (mortality or growth inhibition) at 200 ppm [1] | percent effect (mortality or growth inhibition) at 200 ppm [2] | percent effect (mortality or growth inhibition) at 200 ppm [8] | percent control (mortality, anti-feedant effect or growth inhibition) at 200 ppm [5] | mortality at 200 ppm [6] | mortality at 200 ppm [7]

CCOC1=NOC(N(COC(=O)C2CC2)C(=O)c2ccc(C3=NO[C@@](c4cc(Cl)c(F)c(Cl)c4)(C(F)(F)F)C3)cc2C)C1 (stereo partly drawn) [Compound A7, [[4-[(5S)-5-(3,5-dichloro-4-fluoro-phenyl)-5-(trifluoromethyl)-4H-isoxazol-3-yl]-2-methyl-benzoyl]-(3-ethoxy-4,5-dihydroisoxazol-5-yl)amino]methyl cyclopropanecarboxylate]
≥ 80%: percent effect (mortality or growth inhibition) at 200 ppm [2] | percent effect (mortality or growth inhibition) at 200 ppm [8] | percent control (mortality, anti-feedant effect or growth inhibition) at 200 ppm [5]

CCOC1=NOC(N(COC(=O)OC)C(=O)c2ccc(C3=NO[C@@](c4cc(Cl)c(F)c(Cl)c4)(C(F)(F)F)C3)cc2C)C1 (stereo partly drawn) [Compound A6, [[4-[(5S)-5-(3,5-dichloro-4-fluoro-phenyl)-5-(trifluoromethyl)-4H-isoxazol-3-yl]-2-methyl-benzoyl]-(3-ethoxy-4,5-dihydroisoxazol-5-yl)amino]methyl methyl carbonate]
≥ 80%: percent effect (mortality or growth inhibition) at 200 ppm [2] | percent effect (mortality or growth inhibition) at 200 ppm [8] | percent control (mortality, anti-feedant effect or growth inhibition) at 200 ppm [5]
